“And” between values parts separate entries of the source, which are not always exact repeats. Identical values can stand only once. ± gives the uncertainty stated by the source.
In the case of `CCCCOC(C)=O`, the viscosity (293.15 K, 100 kPa) is reported as 0.73 ± 0.09 mPa·s, the viscosity (293.15 K, 101 kPa) is reported as 0.724 ± 0.0075 mPa·s and 0.724 ± 0.007 mPa·s and the viscosity (293.15 K, 101.33 kPa) is reported as 0.735 ± 0.025 mPa·s. For the same compound, the viscosity (298.15 K, 100 kPa) was 0.683 ± 0.082 mPa·s, the viscosity (308.15 K, 101.33 kPa) was 0.592 ± 0.008 mPa·s and 0.593 ± 0.016 mPa·s and 0.584 ± 0.004 mPa·s and the viscosity (313.15 K, 100 kPa) was 0.55 ± 0.07 mPa·s. The viscosity (313.15 K, 101.33 kPa) was 0.557 ± 0.008 mPa·s and 0.565 ± 0.02 mPa·s, the viscosity (318.15 K, 100 kPa) was 0.51 ± 0.06 mPa·s and the viscosity (318.15 K, 101 kPa) was 0.524 ± 0.011 mPa·s and 0.5262 ± 0.0061 mPa·s. It also gave a viscosity (318.15 K, 101.33 kPa) of 0.524 ± 0.008 mPa·s, a viscosity (323.15 K, 100 kPa) of 0.465 ± 0.056 mPa·s and a viscosity (323.15 K, 101 kPa) of 0.507 ± 0.007 mPa·s.

Compound `Oc1ccccc1Cl` has a viscosity (293.15 K, 101 kPa) of 4.21 ± 0.05 mPa·s, a viscosity (298 K, 101 kPa) of 3.376 ± 0.086 mPa·s and a viscosity (298 K, 101.3 kPa) of 3.376 ± 0.029 mPa·s. The viscosity (298 K, 101.33 kPa) was 3.36 ± 0.067 mPa·s, the viscosity (298.15 K, 101 kPa) was 3.671 ± 0.13 mPa·s and 3.381 ± 0.039 mPa·s and the viscosity (303 K, 101 kPa) was 2.927 ± 0.075 mPa·s. For the same compound, the viscosity (303 K, 101.3 kPa) was 2.927 ± 0.027 mPa·s, the viscosity (303.15 K, 101 kPa) was 3.08 ± 0.03 mPa·s and 2.821 ± 0.063 mPa·s and 2.998 ± 0.045 mPa·s and the viscosity (308 K, 101 kPa) was 2.532 ± 0.065 mPa·s. The viscosity (308 K, 101.3 kPa) was 2.532 ± 0.024 mPa·s, the viscosity (308.15 K, 101 kPa) was 2.491 ± 0.056 mPa·s and 2.358 ± 0.029 mPa·s and the viscosity (313 K, 101 kPa) was 2.191 ± 0.056 mPa·s. The viscosity (313 K, 101.3 kPa) was 2.191 ± 0.021 mPa·s, the viscosity (313.15 K, 101 kPa) was 2.32 ± 0.02 mPa·s and 2.32 ± 0.023 mPa·s and 2.259 ± 0.052 mPa·s and the viscosity (318 K, 101 kPa) was 1.947 ± 0.05 mPa·s. The viscosity (318 K, 101.3 kPa) was 1.947 ± 0.019 mPa·s, the viscosity (318.15 K, 101 kPa) was 2.038 ± 0.047 mPa·s and the viscosity (323.1 K, 101 kPa) was 2.015 ± 0.069 mPa·s. For the same compound, the viscosity (323.15 K, 101 kPa) was 1.871 ± 0.019 mPa·s.

For `CCCOC(=O)c1ccccc1`, the viscosity (293.15 K, 101.33 kPa) was 2.586 ± 0.015 mPa·s, the viscosity (298.15 K, 101 kPa) was 2.357 ± 0.075 mPa·s and the viscosity (303.15 K, 101.33 kPa) was 2.013 ± 0.012 mPa·s. It also gave a viscosity (308.15 K, 101 kPa) of 1.905 ± 0.061 mPa·s, a viscosity (313.15 K, 101.33 kPa) of 1.604 ± 0.01 mPa·s and a viscosity (318.15 K, 101 kPa) of 1.574 ± 0.05 mPa·s. For the same compound, the viscosity (323.15 K, 101.33 kPa) was 1.301 ± 0.008 mPa·s.

In the case of `N#CCCl`, the viscosity (293.15 K, 101 kPa) is reported as 0.938 ± 0.025 mPa·s, the viscosity (298.15 K, 101 kPa) is reported as 0.863 ± 0.023 mPa·s and the viscosity (303.15 K, 101 kPa) is reported as 0.798 ± 0.021 mPa·s. For the same compound, the viscosity (313.15 K, 101 kPa) was 0.714 ± 0.019 mPa·s and the viscosity (323.15 K, 101 kPa) was 0.616 ± 0.016 mPa·s.

For `OCCc1ccccc1`, the viscosity (298.15 K, 101 kPa) was 10.9 ± 0.09 mPa·s, the viscosity (303.15 K, 100 kPa) was 9.05 ± 0.25 mPa·s and 9.027 ± 0.54 mPa·s and the viscosity (308.15 K, 100 kPa) was 7.653 ± 0.46 mPa·s. For the same compound, the viscosity (313.15 K, 100 kPa) was 6.335 ± 0.38 mPa·s.

For `CCCCCCCC(=O)O`, the viscosity (298.15 K, 101 kPa) was 5.16 ± 0.13 mPa·s.

With `CCCN` the viscosity (293.15 K, 101.3 kPa) was 0.359 ± 0.01 mPa·s, the viscosity (298.15 K, 100 kPa) was 0.365 ± 0.0042 mPa·s and the viscosity (298.15 K, 101.3 kPa) was 0.342 ± 0.01 mPa·s. For the same compound, the viscosity (298.15 K, 101.33 kPa) was 0.356 ± 0.004 mPa·s, the viscosity (303.15 K, 101 kPa) was 0.3468 ± 0.005 mPa·s and 0.3479 ± 0.005 mPa·s and the viscosity (303.15 K, 101.33 kPa) was 0.3479 ± 0.005 mPa·s and 0.3512 ± 0.0032 mPa·s. The viscosity (308.15 K, 101 kPa) was 0.2998 ± 0.011 mPa·s, the viscosity (308.15 K, 101.33 kPa) was 0.328 ± 0.004 mPa·s and the viscosity (313.15 K, 101.33 kPa) was 0.3123 ± 0.003 mPa·s. It also gave a viscosity (318.15 K, 101.33 kPa) of 0.291 ± 0.003 mPa·s.

In the case of `Clc1ccccc1Cl`, the viscosity (298.15 K, 101 kPa) is reported as 1.22 ± 0.011 mPa·s, the viscosity (303.15 K, 100 kPa) is reported as 1.238 ± 0.01 mPa·s and the viscosity (303.15 K, 101 kPa) is reported as 1.129 ± 0.01 mPa·s and 1.22 ± 0.015 mPa·s. The viscosity (308.15 K, 100 kPa) was 1.146 ± 0.01 mPa·s, the viscosity (308.15 K, 101 kPa) was 1.058 ± 0.0098 mPa·s and 1.148 ± 0.013 mPa·s and the viscosity (313.15 K, 100 kPa) was 1.054 ± 0.009 mPa·s. The viscosity (313.15 K, 101 kPa) was 0.9857 ± 0.0094 mPa·s and 1.054 ± 0.21 mPa·s, the viscosity (318.15 K, 100 kPa) was 0.974 ± 0.009 mPa·s and the viscosity (318.15 K, 101 kPa) was 0.974 ± 0.19 mPa·s.

Work on `C=COC(C)=O` yielded a viscosity (303.15 K, 101.33 kPa) of 0.372 ± 0.003 mPa·s.

For `CCCCCCCCCCCCCCCCCCCC`, the viscosity (313.2 K, 101.3 kPa) was 4.01 ± 0.045 mPa·s.

In the case of `CN1CCCN(C)C1=O`, the viscosity (293.15 K, 100 kPa) is reported as 3.514 ± 0.14 mPa·s, the viscosity (298.15 K, 100 kPa) is reported as 3.11 ± 0.13 mPa·s and the viscosity (298.15 K, 101 kPa) is reported as 2.95 ± 0.02 mPa·s. It also gave a viscosity (303.15 K, 100 kPa) of 2.779 ± 0.11 mPa·s, a viscosity (308.15 K, 100 kPa) of 2.501 ± 0.1 mPa·s and a viscosity (313.15 K, 100 kPa) of 2.266 ± 0.093 mPa·s. The viscosity (318.15 K, 100 kPa) was 2.064 ± 0.085 mPa·s and the viscosity (323.15 K, 100 kPa) was 1.891 ± 0.077 mPa·s.

`C[n+]1ccn(CCO)c1.O=C([O-])C(F)(F)C(F)(F)C(F)(F)C(F)(F)F` showed a viscosity (298.15 K, 101 kPa) of 712.8 ± 38 mPa·s, a viscosity (308.15 K, 101 kPa) of 351.3 ± 17 mPa·s and a viscosity (318.15 K, 101 kPa) of 190.8 ± 8.5 mPa·s.

With `CC(C)c1ccccc1` the viscosity (293.15 K, 101 kPa) was 0.779 ± 0.013 mPa·s, the viscosity (298.15 K, 100 kPa) was 0.772 ± 0.008 mPa·s and the viscosity (298.15 K, 101 kPa) was 0.7314 ± 0.019 mPa·s and 0.731 ± 0.019 mPa·s. The viscosity (303.15 K, 101 kPa) was 0.68 ± 0.01 mPa·s and 0.6881 ± 0.0057 mPa·s, the viscosity (308.15 K, 100 kPa) was 0.692 ± 0.007 mPa·s and the viscosity (308.15 K, 101 kPa) was 0.6366 ± 0.017 mPa·s and 0.636 ± 0.016 mPa·s and 0.6488 ± 0.0054 mPa·s. The viscosity (313.15 K, 101 kPa) was 0.608 ± 0.011 mPa·s and 0.607 ± 0.011 mPa·s and 0.6116 ± 0.0051 mPa·s, the viscosity (318.15 K, 100 kPa) was 0.623 ± 0.006 mPa·s and the viscosity (318.15 K, 101 kPa) was 0.5767 ± 0.0049 mPa·s. It also gave a viscosity (323.15 K, 101 kPa) of 0.5447 ± 0.0046 mPa·s.

In the case of `CCC(CC)CO`, the viscosity (298.15 K, 101.33 kPa) is reported as 5.819 ± 0.053 mPa·s and 5.819 ± 0.05 mPa·s.

With `CC(C)C(C)O` (centres undefined) the viscosity (303.15 K, 101.33 kPa) was 3.163 ± 0.037 mPa·s, the viscosity (313.15 K, 101.33 kPa) was 2.185 ± 0.026 mPa·s and the viscosity (323.15 K, 101.33 kPa) was 1.573 ± 0.019 mPa·s.

— the CheMixHub viscosity set
